Measurements as given in patent US8431541B2, “Alpha-amylase inhibitors: the montbretins and uses thereof” (The University of British Columbia, priority 2007, dated 2013).

Tests used:
[1] = target: T1, α-mannosidase (Jack Bean) (Canavalia ensiformis, UniProt C0HJB3); assay: Glycosidase specificity: α-mannosidase; format: biochemical; conditions: at 0.1 μM Montbretin A; read-out: RA (%), Residual Enzyme Activity
T1 sequence (C0HJB3 1-981): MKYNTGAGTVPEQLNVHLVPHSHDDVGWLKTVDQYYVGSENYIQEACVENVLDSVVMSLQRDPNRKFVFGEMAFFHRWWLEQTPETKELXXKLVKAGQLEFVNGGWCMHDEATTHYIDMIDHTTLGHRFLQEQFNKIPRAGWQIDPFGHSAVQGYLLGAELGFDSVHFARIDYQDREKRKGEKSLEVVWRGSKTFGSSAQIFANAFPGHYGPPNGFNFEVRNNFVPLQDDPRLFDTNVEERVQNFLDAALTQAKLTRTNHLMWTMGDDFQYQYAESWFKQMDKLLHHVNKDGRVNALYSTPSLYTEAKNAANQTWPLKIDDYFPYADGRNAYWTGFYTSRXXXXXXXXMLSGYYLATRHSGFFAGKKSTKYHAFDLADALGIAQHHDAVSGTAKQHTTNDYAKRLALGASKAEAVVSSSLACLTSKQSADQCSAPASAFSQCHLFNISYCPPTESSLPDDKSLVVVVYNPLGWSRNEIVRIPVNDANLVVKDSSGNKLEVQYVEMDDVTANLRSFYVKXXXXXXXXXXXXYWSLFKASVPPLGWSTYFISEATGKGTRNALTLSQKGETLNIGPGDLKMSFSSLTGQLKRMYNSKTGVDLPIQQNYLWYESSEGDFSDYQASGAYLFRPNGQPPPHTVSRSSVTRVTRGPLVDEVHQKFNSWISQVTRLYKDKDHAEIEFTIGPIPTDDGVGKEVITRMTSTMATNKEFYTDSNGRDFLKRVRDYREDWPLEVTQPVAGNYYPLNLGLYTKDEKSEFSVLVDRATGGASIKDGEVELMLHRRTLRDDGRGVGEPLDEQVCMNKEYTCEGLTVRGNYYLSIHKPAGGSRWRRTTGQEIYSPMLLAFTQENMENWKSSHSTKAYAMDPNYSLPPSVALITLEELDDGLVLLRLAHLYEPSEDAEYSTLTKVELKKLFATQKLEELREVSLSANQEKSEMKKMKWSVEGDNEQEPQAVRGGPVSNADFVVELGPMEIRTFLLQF

[2] = tested on: α-glucosidase (Brewers Yeast); assay: Glycosidase specificity: α-glucosidase; format: biochemical; conditions: at 0.1 μM Montbretin A
[3] = tested on: control and STZ-diabetic rats; assay: Acute starch tolerance test; format: in vivo, rat
Procedure: Twenty-four animals were obtained at 200-250 g of body weight and randomly divided into control and diabetic groups. Diabetes was induced by a single intravenous tail vein injection of streptozotocin 60 mg/kg in 0.9% normal saline. Control rats received normal saline injections only. Animals were subsequently divided into acarbose untreated and treated. […] Starch was obtained from Fisher Scientific and a 17.5% suspension was made in distilled water. The dose of starch given was […].
The animals were fasted overnight. A basal blood sample was collected (50 μl volume) and then at 30, 60, 90 and 120 minutes post drug administration. Starch and starch+acarbose was administered by oral gavage. Blood was centrifuged at 10,000 g×25 minutes and plasma collected for determination of glucose levels using a Beckman Glucose Analyzer II™. There was no difference in body weight among the groups. There was a significant increase in plasma glucose 30 and 60 minutes following starch administration in the diabetic untreated group only.
The twenty-four animals from Example 6 were used following a wash out period of one week. Animals were divided into montbretin A untreated and treated. The four treatment groups were: control, n=6, control+montbretin A, n=6, diabetic, n=6 and diabetic+montbretin A, n=6. The procedures used in Example 6 were employed. Montbretin A was dissolved in distilled water at a concentration of 10 mg/ml and given at a volume of 1 ml/kg. The dose of montbretin A given was 10 mg/kg. There was no difference in body weight among the groups. There was a significant increase in plasma glucose levels in the diabetic untreated group at 30 and 60 minutes following starch administration.
A study was done to determine the effect of various amounts of montbretin A and montbretin extracts on plasma glucose levels in response to a starch challenge in STZ-diabetic rats. Diabetic animals used in the previous Examples were used following a wash out period of one week. The six experimental groups were: diabetic (D, n=3) diabetic+montbretin A (5 mg/kg), (DT5, n=3), diabetic+montbretin A (1 mg/kg), (DT1, n=3), diabetic+montbretin A (0.5 mg/kg), (DT0.5, n=3), diabetic+Crocosmia corm methanol extract (5 mg/kg), (DM, n=3) and diabetic+Crocosmia corm ethanol extract (5 mg/kg), (DE, n=2).
Montbretin A was dissolved in distilled water at a concentration of 5, 1 or 0.5 mg/ml and given at a volume of 1 ml/kg. The methanol extract contained montbretin A at a concentration of 3.2 mg/ml and ethanol extract at a concentration of 1.6 mg/ml. These extracts were dried and resuspended in distilled water. There was no difference in body weight among the groups. […] Diarrhea occurred in 2 out 3 animals given the methanol extract and in 1 out of 2 animals given the ethanol extract. […]

[4] = tested on: male Wistar rats; assay: Taste aversion study, drinking water; format: in vivo, rat; conditions: approximately 10 mg/kg/day in drinking water
Procedure: A study was done to determine if there is aversion by animals to the taste of montbretin A dissolved in drinking water. Six (6) male Wistar rats weighing between 500-650 g were housed 2 rats per cage. Three hundred grams (300 g) of standard rat chow (Purnia) was placed in the food hopper of each cage daily. Food consumption per cage per day was determined every 24 hours for 3 days. A fluid volume of 900 ml of drinking water was placed on each cage daily. Fluid consumption per cage per day was determined every 24 hours for 3 days. Body weights of each animal were measured every 24 hours.
Based on the preliminary drinking water values obtained, montbretin A was dissolved in the drinking water so as to deliver a dose of 10 mg/kg/day. Body weight and food consumption measurements were done as described above. A fluid volume of 250 ml of montbretin A solution at a concentration of 0.09 mg/ml was placed on each cage daily. Fluid consumption was measured every 24 hours for 3 days.
The food and fluid consumption and body weights were analyzed. The dose of montbretin A was determined based on weight and consumption values. There was no effect of montbretin A dissolved in the drinking water on body weight, fluid intake or food intake and a dose of approximately 10 mg/kg was achieved.

Q: CC1O[C@@H](O[C@@H]2CO[C@@H](Oc3c(O)cc(-c4oc5cc(O)cc(O)c5c(=O)c4O[C@@H]4OC(C)[C@H](O)[C@H](O)C4O[C@@H]4OC(COC(=O)/C=C/c5ccc(O)c(O)c5)[C@@H](O)[C@@H](O)C4O[C@@H]4OC(CO)[C@@H](O)[C@@H](O)C4O)cc3O)C(O)[C@@H]2O)C(O)[C@@H](O)[C@H]1O (stereo partly drawn) [Montbretin A, montbretin A] was tested. Which remaining activity at 0.1 µM [1] did it give?
A: Its remaining activity at 0.1 µM is 100%.

Q: And the “RA (%), Residual Enzyme Activity” value [2]?
A: The value was 97%.

Q: What about the “increase in plasma glucose following starch administration” value ([3]; 5 mg/kg, acute, STZ-diabetic rats) of the same molecule?
A: Its value is “prevented the increase in plasma glucose”.

Q: And the “increase in plasma glucose following a starch challenge” value ([3]; 10 mg/kg, oral gavage, acute, control and STZ-diabetic rats)?
A: Its value is “effective in preventing the increase in plasma glucose”.

Q: And the “effect on plasma glucose, area under the curve” value ([3]; lower doses (1 mg/kg, 0.5 mg/kg), STZ-diabetic rats)?
A: Its value is “not particularly significant”.

Q: And the “effect on body weight” value ([4]; 3 days)?
A: Its value is “no effect”.

Q: And the “effect on fluid intake” value ([4]; 3 days)?
A: The value was “no effect”.

Q: What about the “effect on food intake” value ([4]; 3 days) of the same molecule?
A: Its value is “no effect”.

Q: And the side effects ([4]; duration of the trial)?
A: The side effects was “no overt indications of side effects”.
